Assay results taken from patent US12630532B2, “Indole-substituted quinolines and their combination with Plk1 inhibitors for the treatment of cancer” (UNIVERSITY OF KENTUCKY RESEARCH FOUNDATION, priority 2021, dated 2026).

Assays:
[1] = system: LS174T colon cancer cell xenografts; test: In vivo antineoplastic activity and gross toxicity in LS174T xenografts
Procedure: Mouse studies were carried out with approval from the Institutional Animal Care and Use Committee of the University of Kentucky (2020-3531). All methods were performed in accordance with the relevant guidelines and regulations according to protocols. […] After tumors were established, mice were randomized according to tumor volume and divided into groups for treatments (five mice in each group, two tumors on each mouse).
The in vivo evaluation of ISQ-1 and BI2536 followed the approved protocol. After tumors were established, ISQ-1 was formulated in a mixture of Tween-80 (5%), DMSO (10%), PEG400 (25%) and PBS (60%) and was intraperitoneally administered to the ISQ-1 group at a daily dose of 20 mg/kg mouse body weight. The first day of treatment was set as day 0. At days 0, 4, and 7, BI2536 dissolved in 0.1 N HCl and then diluted 5-fold using 0.9% NaCl was given via gavage to the B12536 group. Mice in combination therapy group were treated with both ISQ-1 and BI2536 following aforementioned dosing schedules. At day 11 treatment was ceased and mice were sacrificed. Tumors and mouse weights were measured, and tumor volumes were calculated as Length×width^2/2.
Major biological assays were performed at least twice. Data were shown as mean SEM. For the mice study, five mice with two tumors on the lower flanks of each mouse were used in each treatment group. Sizes of the two tumors from each mouse were averaged, standardized by the tumor size on day 0, and log-transformed. ANOVA with Tukey's HSD test was used to compare the tumor size at the end of the study (day 11) between the combination therapy of ISQ-1 and B12536 and each single compound as well as the control. The equal variance assumption of ANOVA was assessed by Bartlett's test. All statistical studies were overseen in collaboration with a statistician in the University of Kentucky's Markey Cancer Center.

[2] = cited from earlier work
[3] = system: mitochondrial ETC complex I; test: Mitochondrial ETC complex activity measurements using PMP-permeabilized cells; type: cell-based; conditions: pyruvate substrate
Procedure: Mitochondrial ETC complex activity measurements were taken using the Agilent Seahorse Assay with XF PMP (Agilent, Santa Clara, CA) following manufacturer's instructions. Adherent monolayer cells were gently washed with mitochondrial assay solution (MAS) (220 mM mannitol, 70 mM sucrose, 10 mM KH2PO4, 5 mM MgCl2, 2 mM HEPES, 1 mM EGTA, and 0.2% (w/v) fatty acid free BSA) and cell growth media was replaced with MAS supplemented with 4 mM adenosine diphosphate (ADP), 10 mM pyruvate, and 1 nM PMP. Following calibration, the assay was immediately performed by measuring baseline with two cycles of 0.5 min mixing, 0.5 min waiting, and 2 min measuring. After baseline measurements, sequential injections of DMSO, compounds of interest or 2 μM rotenone, 10 mM succinate, 2 μM antimycin A, and a combination of 10 mM ascorbate and 100 μM TMPD were also performed with each followed by two cycles of 0.5 min mixing, 0.5 min waiting, and 2 min measuring. Data were then normalized to cell counts using the Biotek Cytation 1 (BioTek Instruments, Winooski, VT, USA).

LS174T cells = test: Cell proliferation inhibition assay (5 days, cell counting); type: cell-based; conditions: for inhibition at 0.062 µM / inhibition at 0.125 µM / inhibition at 0.25 µM / inhibition at 0.5 µM: 120 h, 5 days; for inhibition at 0.062 µM: 62 nM; for inhibition at 0.125 µM: 125 nM; for inhibition at 0.25 µM: 250 nM; for inhibition at 0.3 µM: read-out: Inhibition % on LS174T cells Proliferation 0.3 uM Inhib. %; for inhibition at 1 µM: read-out: Inhibition % on LS174T cells Proliferation 1 uM Inhib. %; for inhibition at 3 µM: read-out: Inhibition % on LS174T cells Proliferation 3 uM Inhib. %
Procedure: Cell proliferation inhibition assays were done following a previous report (32). Cancer cells were seeded into 24-well plates at a density of 20,000 cells per well in 1 mL of culture medium and were cultured overnight at 37° C. Compounds and the vehicle control (DMSO) were added to the cells. After 5 days, the medium was removed, and 100 μL of trypsin was added. The cells were resuspended in phosphate-buffered saline (PBS) and were counted by Vi-CELL XR 2.03 (Beckman Coulter, Inc. USA). The ratio R of the number of viable cells in the compound treatment group to the number of viable cells in DMSO treatment group was taken as relative growth, and the percentage growth inhibition was calculated as (1−R)*100.

[4] = system: mitochondrial ETC (electron transport chain); test: Seahorse assay (OCR) in Beas-2B cells; type: cell-based
Procedure: Seahorse assays were carried out following a published procedure (25). Briefly, 2.5×10^4 cells in 80 μL of medium were seeded in XF96 Cell Culture microplate for all experiments. On the next day, cell culture media were replaced with Seahorse XF modified media. Cells were treated with 1 μM of oligomycin A, 1.0 μM FCCP and mixture of 1.0 μM of rotenone and 1.0 μM of antimycin A in standard mitochondrial stress test conditions. To determine the uncoupler effects, FCCP was replaced with an equal volume of DMSO, or a compound to be tested in DMSO solution.

[5] = system: Wnt signaling target genes c-Myc and axin2; test: Western blotting of Wnt signaling target genes in LS174T cells; type: cell-based; conditions: 24 hours
Procedure: (§1) Western blotting were performed according to previous procedures (25). Cells were split into 12-well plates. After 24 hours, compounds at indicated final concentrations were added to each well for another 24 hours unless otherwise noted. DMSO was used as a control. Cells were lysed in the appropriate volume of lysis buffer: 50 mM HEPES, 100 mM NaCl, 2 mM EDTA, 1% (v/v) glycerol, 50 mM NaF, 1 mM Na3VO4, 1% (v/v) Triton X-100, with protease inhibitors. Cell lysates were centrifuged, and supernatants were mixed with 6× protein loading buffer and boiled. The obtained samples were analyzed with standard western blotting methods with indicated antibodies.

Plk1 = test: Western blotting of cell signaling pathways in LS174T cells; type: cell-based; conditions: LS174T colon cancer cells, 24 hours
Procedure: as §1

AMPK = AMPK activation (western blotting, pAMPK/pACC) in LS174T cells; type: cell-based
Procedure: as §1

CC[C@@H]1C(=O)N(C)c2cnc(Nc3ccc(C(=O)NC4CCN(C)CC4)cc3OC)nc2N1C1CCCC1 [BI2536, reference compound]
gross toxicities on the basis of mouse weight measurements ([1]; mouse, in vivo): No gross toxicities | tumor growth of LS174T xenografts ([1]; nude mice, ISQ-1 20 mg/kg daily i.p., BI2536 30 mg/kg twice a week by gavage, day 11): inhibited tumor growth but did not induce tumor regression | antitumor activity in Phase II clinical trials ([2]; Phase II): only limited antitumor activity | safety in phase I clinical trials ([2]; phase I): safe

Cn1cc(-c2cc3ccc(N4CCC(C#N)CC4)cc3nc2N)c2ccccc21 [ISQ-7, 1-(2-Amino-3-(1-methyl-1H-indol-3-yl)quinolin-7-yl)piperidine-4-carbonitrile]
ETC complex I inhibition (pyruvate/NADH-linked respiration) [3]: inhibited complex I | percentage inhibition of LS174T cell proliferation at 500 nM, compared among ISQs (FIG. 2B) (LS174T cells; 500 nM): comparable to the N,N-dimethylamino group in ISQ-1 | inhibition at 0.062 µM (LS174T cells; Homo sapiens, LS174T): 19 ± 5.5% | inhibition at 0.125 µM (LS174T cells; Homo sapiens, LS174T): 89 ± 0.2% | inhibition at 0.25 µM (LS174T cells; Homo sapiens, LS174T): 98 ± 0.6% | inhibition at 0.5 µM (LS174T cells; Homo sapiens, LS174T, 500 nM): 97 ± 0.7% | IC50 (LS174T cells; Homo sapiens, dose response studies, LS174T, read-out: IC50 values in cell proliferation assays): ~0.1 µM | ETC complex V inhibition (oligomycin replaced with compound) [4]: did not inhibit ETC complex V | uncoupler effect (FCCP replaced with compound) [4]: no uncouplers | effect on Wnt signaling target genes c-Myc and axin2 [5]: strongly inhibited | Plk1 expression upon drug treatment (Plk1): induced | AMPK activation (AMPK): activated AMPK

Nc1nc2cc(N3CCCC3)ccc2cc1-c1cc(Cl)cc(Cl)c1 [LMK-5-280]
inhibition at 0.3 µM (LS174T cells; Homo sapiens, LS174T): 31% | inhibition at 1 µM (LS174T cells; Homo sapiens, LS174T): 93.1% | inhibition at 3 µM (LS174T cells; Homo sapiens, LS174T): 97.7%

Cn1cc(-c2cc3ccc(N4CCOCC4)cc3nc2N)c2ccccc21 [LMK-5-281]
inhibition at 0.3 µM (LS174T cells; Homo sapiens, LS174T): 30.9% | inhibition at 1 µM (LS174T cells; Homo sapiens, LS174T): 93.7% | inhibition at 3 µM (LS174T cells; Homo sapiens, LS174T): 98.1%

CN1CCN(c2ccc3cc(-c4cn(C)c5ccccc45)c(N)nc3c2)CC1 [LMK-5-282]
inhibition at 1 µM (LS174T cells; Homo sapiens, LS174T): 25.2% | inhibition at 3 µM (LS174T cells; Homo sapiens, LS174T): 83.7%

Nc1nc2cc(N3CCOCC3)ccc2cc1-c1ccccc1F [LMK-5-284]
inhibition at 1 µM (LS174T cells; Homo sapiens, LS174T): 20.6% | inhibition at 3 µM (LS174T cells; Homo sapiens, LS174T): 85.6%

Nc1nc2cc(N3CCCCC3)ccc2cc1-c1ccccc1F [LMK-5-286]
inhibition at 0.3 µM (LS174T cells; Homo sapiens, LS174T): 21.9% | inhibition at 1 µM (LS174T cells; Homo sapiens, LS174T): 96% | inhibition at 3 µM (LS174T cells; Homo sapiens, LS174T): 97%

CC(C)C1CCN(c2ccc3cc(-c4ccccc4F)c(N)nc3c2)CC1 [LMK-6-84]
inhibition at 0.5 µM (LS174T cells; Homo sapiens, LS174T, 500 nM): 79 ± 5.7%

Nc1nc2cc(N3CCC(c4ccccc4)CC3)ccc2cc1-c1ccccc1F [LMK-6-89]
inhibition at 0.062 µM (LS174T cells; Homo sapiens, LS174T): 2 ± 3% | inhibition at 0.125 µM (LS174T cells; Homo sapiens, LS174T): 20 ± 0.6% | inhibition at 0.25 µM (LS174T cells; Homo sapiens, LS174T): 23 ± 3.8% | inhibition at 0.5 µM (LS174T cells; Homo sapiens, LS174T, 500 nM): 89 ± 1%

Nc1nc2cc(N3CCC(Cc4ccccc4)CC3)ccc2cc1-c1ccccc1F [LMK-6-91]
inhibition at 0.5 µM (LS174T cells; Homo sapiens, LS174T, 500 nM): 14 ± 1.2%

N#CC1CCN(c2ccc3cc(-c4ccccc4F)c(N)nc3c2)CC1 [LMK-6-99]
inhibition at 0.062 µM (LS174T cells; Homo sapiens, LS174T): 2 ± 0.2% | inhibition at 0.125 µM (LS174T cells; Homo sapiens, LS174T): 9 ± 2.2% | inhibition at 0.25 µM (LS174T cells; Homo sapiens, LS174T): 17 ± 0.1% | inhibition at 0.5 µM (LS174T cells; Homo sapiens, LS174T, 500 nM): 64 ± 3.5%

COCC1CCN(c2ccc3cc(-c4ccccc4F)c(N)nc3c2)CC1 [LMK-6-109]
inhibition at 0.062 µM (LS174T cells; Homo sapiens, LS174T): 16 ± 8.4% | inhibition at 0.125 µM (LS174T cells; Homo sapiens, LS174T): 29 ± 0.3% | inhibition at 0.25 µM (LS174T cells; Homo sapiens, LS174T): 70 ± 8.8% | inhibition at 0.5 µM (LS174T cells; Homo sapiens, LS174T, 500 nM): 94 ± 0.1%

Nc1nc2cc(N3CCC(CO)CC3)ccc2cc1-c1ccccc1F [LMK-6-117]
inhibition at 0.062 µM (LS174T cells; Homo sapiens, LS174T): 12 ± 1.4% | inhibition at 0.125 µM (LS174T cells; Homo sapiens, LS174T): 12 ± 0.7% | inhibition at 0.25 µM (LS174T cells; Homo sapiens, LS174T): 32 ± 10.5% | inhibition at 0.5 µM (LS174T cells; Homo sapiens, LS174T, 500 nM): 59 ± 0.3%

CN(C)c1ccc2cc(-c3ccc(Cl)c(Cl)c3)c(N)nc2c1 [VMS-4-57]
inhibition at 0.3 µM (LS174T cells; Homo sapiens, LS174T): 26.7% | inhibition at 1 µM (LS174T cells; Homo sapiens, LS174T): 57.8% | inhibition at 3 µM (LS174T cells; Homo sapiens, LS174T): 74.3%

CN(C)c1ccc2cc(-c3cc(Cl)cc(Cl)c3)c(N)nc2c1 [VMS-4-103]
inhibition at 3 µM (LS174T cells; Homo sapiens, LS174T): 86.4%

CN(C)c1ccc2cc(-c3nc4ccccc4s3)c(N)nc2c1 [VMS-7-1]
inhibition at 3 µM (LS174T cells; Homo sapiens, LS174T): 95.3%

CN(C)c1ccc2cc(-c3csc4ccccc34)c(N)nc2c1 [VMS-7-3]
inhibition at 3 µM (LS174T cells; Homo sapiens, LS174T): 96.7%

CN(C)c1ccc2cc(-c3coc4ccccc34)c(N)nc2c1 [VMS-7-7]
inhibition at 0.3 µM (LS174T cells; Homo sapiens, LS174T): 87.2% | inhibition at 1 µM (LS174T cells; Homo sapiens, LS174T): 97.8% | inhibition at 3 µM (LS174T cells; Homo sapiens, LS174T): 96.8%

COc1ccc2c(c1)c(-c1cc3ccc(N(C)C)cc3nc1N)cn2C [VMS-7-29]
inhibition at 3 µM (LS174T cells; Homo sapiens, LS174T): 99.3%

CNc1ccc2cc(-c3cc(Cl)cc(Cl)c3)c(N)nc2c1 [VMS-8-65]
inhibition at 3 µM (LS174T cells; Homo sapiens, LS174T): 97.2%

CNc1ccc2cc(-c3cn(C)c4ccccc34)c(N)nc2c1 [VMS-8-67]
inhibition at 3 µM (LS174T cells; Homo sapiens, LS174T): 96.9%
